Measured values published in paper PMC7818505 (Journal of Clinical Pharmacology, 2020).

What was measured:
CYP3A4 [1] = assay: Phase 1 clinical DDI study, midazolam probe with or without relacorilant; type: in vivo, human
CYP2C8 = biological target: T1, CYP2C8 (Homo sapiens, UniProt P10632); assay: Phase 1 clinical DDI study, pioglitazone probe with or without relacorilant; type: in vivo
T1 sequence (P10632 1-490): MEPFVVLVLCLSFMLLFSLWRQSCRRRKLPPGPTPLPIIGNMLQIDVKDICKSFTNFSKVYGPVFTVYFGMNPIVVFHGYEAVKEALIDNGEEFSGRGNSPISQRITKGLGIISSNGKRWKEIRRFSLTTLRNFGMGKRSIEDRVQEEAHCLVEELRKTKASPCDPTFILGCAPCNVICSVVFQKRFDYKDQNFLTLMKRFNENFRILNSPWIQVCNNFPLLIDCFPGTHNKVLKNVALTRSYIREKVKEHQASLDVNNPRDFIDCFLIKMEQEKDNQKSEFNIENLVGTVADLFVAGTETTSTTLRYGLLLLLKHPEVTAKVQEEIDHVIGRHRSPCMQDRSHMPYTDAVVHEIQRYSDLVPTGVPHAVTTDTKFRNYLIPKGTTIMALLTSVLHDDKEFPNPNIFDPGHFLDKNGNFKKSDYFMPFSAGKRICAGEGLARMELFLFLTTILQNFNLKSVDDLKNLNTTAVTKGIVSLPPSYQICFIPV

CYP1A2 messenger RNA = assay: In vitro CYP induction assay, messenger RNA in cryopreserved human hepatocytes; type: in vitro ADME; details: 3 donors
CYP2B6 messenger RNA = assay: as above; type: in vitro ADME; details: 3 donors
progesterone receptor = details: background statement; cited from earlier work
CYP3A4 [2] = biological target: CYP3A4 (Homo sapiens, UniProt P08684); assay: biochemical
Sequence of CYP3A4 (Homo sapiens, UniProt P08684) (P08684 whole entry): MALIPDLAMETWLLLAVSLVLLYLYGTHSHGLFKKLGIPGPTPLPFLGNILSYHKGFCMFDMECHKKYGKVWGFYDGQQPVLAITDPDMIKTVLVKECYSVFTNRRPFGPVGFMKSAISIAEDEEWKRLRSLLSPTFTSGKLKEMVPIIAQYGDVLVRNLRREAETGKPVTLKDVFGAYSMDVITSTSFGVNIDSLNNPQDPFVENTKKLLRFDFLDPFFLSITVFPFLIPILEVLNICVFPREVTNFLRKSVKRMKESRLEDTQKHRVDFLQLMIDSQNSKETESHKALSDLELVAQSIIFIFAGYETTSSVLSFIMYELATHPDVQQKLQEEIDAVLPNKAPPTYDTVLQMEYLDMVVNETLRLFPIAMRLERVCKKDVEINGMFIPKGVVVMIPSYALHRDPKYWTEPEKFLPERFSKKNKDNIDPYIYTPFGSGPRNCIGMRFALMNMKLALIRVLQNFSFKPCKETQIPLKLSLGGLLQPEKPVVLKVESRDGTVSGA

CYP2C9 = CYP2C9 (Homo sapiens, UniProt P11712); details: background statement; cited from earlier work
Sequence of CYP2C9 (P11712 whole entry): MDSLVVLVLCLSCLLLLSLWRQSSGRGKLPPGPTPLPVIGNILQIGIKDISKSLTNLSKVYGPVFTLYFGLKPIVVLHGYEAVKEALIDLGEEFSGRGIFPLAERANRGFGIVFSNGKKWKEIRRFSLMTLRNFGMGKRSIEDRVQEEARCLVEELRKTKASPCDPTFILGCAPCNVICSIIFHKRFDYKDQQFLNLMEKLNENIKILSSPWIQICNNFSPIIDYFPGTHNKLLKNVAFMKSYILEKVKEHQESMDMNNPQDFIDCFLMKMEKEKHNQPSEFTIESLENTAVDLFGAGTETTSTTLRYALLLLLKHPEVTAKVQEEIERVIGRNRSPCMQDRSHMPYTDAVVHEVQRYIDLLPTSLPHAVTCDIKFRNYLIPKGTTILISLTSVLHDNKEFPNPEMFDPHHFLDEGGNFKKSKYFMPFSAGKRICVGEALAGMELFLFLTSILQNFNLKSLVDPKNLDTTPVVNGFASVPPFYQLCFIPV

[3] = both, human, plasma, po, 2.5 mg, probe midazolam
[4] = both, human, plasma, po, 15 mg, probe pioglitazone
[5] = pioglitazone + relacorilant (day 15) compared to pioglitazone alone (day 2)
[6] = pioglitazone + relacorilant (day 15) vs pioglitazone alone (day 2)

Cc1ncc2n1-c1ccc(Cl)cc1C(c1ccccc1F)=NC2 [Midazolam, midazolam]
AUC(0-inf) (CYP3A4 [1]; both, human, plasma, po, 2.5 mg): 36.4 ng·h/mL
AUC(0-t) (CYP3A4 [1]; [3]): 34.2 ng·h/mL
Cmax (CYP3A4 [1]; [3]): 12.7 ng/mL

CCc1ccc(CCOc2ccc(CC3SC(=O)NC3=O)cc2)nc1 (centres unmarked) [Pioglitazone, pioglitazone]
AUC(0-inf) (CYP2C8; both, human, plasma, po, 15 mg): 5650 ng·h/mL
AUC(0-t) (CYP2C8; [4]): 5530 ng·h/mL
Cmax (CYP2C8; [4]): 525 ng/mL
Tmax (CYP2C8; [4]): 2 h
half-life (CYP2C8; [4]): 10.4 h
GLSM AUCinf lower with relacorilant than alone, pioglitazone (CYP2C8; [5]): ~25%
GLSM AUClast lower with relacorilant than alone, pioglitazone (CYP2C8; [5]): ~25%
GLSM Cmax lower with relacorilant than alone, pioglitazone (CYP2C8; [5]): approximately 22%
AUCinf GLSM Ratio (90%CI), pioglitazone (CYP2C8; [6]): 0.748 (0.681‐0.822)
AUClast GLSM Ratio (90%CI), pioglitazone (CYP2C8; [6]): 0.747 (0.681‐0.820)
Cmax GLSM Ratio (90%CI), pioglitazone (CYP2C8; [6]): 0.778 (0.697‐0.870)

Cn1cc(S(=O)(=O)N2CCC3=Cc4c(cnn4-c4ccc(F)cc4)C[C@]3(C(=O)c3cc(C(F)(F)F)ccn3)C2)cn1 [Relacorilant, (R)‐(1‐(4‐fluorophenyl)‐6‐((1‐methyl‐1H‐pyrazol‐4‐yl)sulfonyl)‐4,4a,5,6,7,8‐hexahydro‐1H‐pyrazolo[3,4‐g]isoquinolin‐4a‐yl)(4‐(trifluoromethyl)pyridin‐2‐yl)methanone]
induction of CYP1A2 (in words) (CYP1A2 messenger RNA): dose‐responsive induction of CYP1A2 was observed in all donors
induction of CYP2B6 (in words) (CYP2B6 messenger RNA): No induction of CYP2B6 was observed in any donor
CYP3A inhibition in vivo (in words) (CYP3A4 [1]; healthy subjects, relacorilant 350 mg once daily, midazolam probe): strong CYP3A inhibitor
affinity for the progesterone receptor (in words) (progesterone receptor): no affinity for the progesterone receptor
IC50 (CYP3A4 [2]): 1320 nM

CC#C[C@]1(O)CC[C@H]2[C@@H]3CCC4=CC(=O)CCC4=C3[C@@H](c3ccc(N(C)C)cc3)C[C@@]21C [mifepristone]
CYP2C9 inhibition in vivo (in words) (CYP2C9): inhibits both CYP2C8 and CYP2C9 in vivo
